Data on 17 molecules can be found in US11142526B2, “Spirocycle compounds and methods of making and using same” (H. Lundbeck A/S, priority 2017, dated 2021).

Broadly, the inhibition is the percentage by which the read-out fell short of the control. As a reminder, the IC50 is the midpoint of a concentration-inhibition curve.

In experiment [1] the target is MAGL (Homo sapiens (Human), UniProt Q99685). Briefly: In vitro competitive activity-based protein profiling (gel-based, FP-Rh or HT-01 probe). It is filed as biochemical. How it is done: In Vitro Competitive Activity-Based Protein Profiling.
Chain of MAGL (Homo sapiens (Human), UniProt Q99685) (Q99685 whole entry): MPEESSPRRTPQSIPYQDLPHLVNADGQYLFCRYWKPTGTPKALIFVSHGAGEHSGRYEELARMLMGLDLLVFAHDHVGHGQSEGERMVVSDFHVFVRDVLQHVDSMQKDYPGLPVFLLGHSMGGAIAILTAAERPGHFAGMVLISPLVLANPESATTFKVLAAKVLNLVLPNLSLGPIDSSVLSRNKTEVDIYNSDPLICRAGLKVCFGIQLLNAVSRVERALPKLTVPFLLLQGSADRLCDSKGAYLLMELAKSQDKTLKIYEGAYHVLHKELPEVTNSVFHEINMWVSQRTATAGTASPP
Proteomes (human prefrontal cortex or cell membrane fractions) (50 μL, 1.0 mg/mL total protein concentration) were preincubated with varying concentrations of inhibitors at 37° C. After 30 min, FP-Rh or HT-01 (1.0 μL, 50 μM in DMSO) was added and the mixture was incubated for another 30 min at room temperature. Reactions were quenched with SDS loading buffer (15 μL—4×) and run on SDS-PAGE.

Experiment [2] addresses T1, MAGL (Mus musculus (Mouse), UniProt O35678). As to the kind of experiment: Mouse brain proteomes from inhibitor treated mice (oral gavage, brain MAGL activity 4 h after administration). It is filed as in vivo. The conditions noted are these: 5 mg/kg oral gavage. The procedure:
Preparation of Mouse Brain Proteomes from Inhibitor Treated Mice.
Inhibitors were administered to wild-type C57B1/6J by oral gavage in a vehicle of polyethylene glycol.

For experiment [3], the target named is T1, MAGL. As to the kind of experiment: In vitro competitive activity-based protein profiling, mouse brain proteome. The following applies: for inhibition at 1 µM: mouse; for IC50: mouse brain. It is filed as biochemical.
[4] abbreviates: human PC3, read-out: MAGL % Inhibition at 1 μM (human PC3).
Setting [5] is: human PFC (prefrontal cortex), read-out: MAGL % Inhibition at 1 μM (human PFC).
[6] abbreviates: human PC3, read-out: MAGL Human PC3 (IC50).
The mark [7] stands for this setting: human PFC (prefrontal cortex), read-out: MAGL Human PFC (IC50).

Read-outs that look alike come from different tables or passages of the source.

T1 sequence (O35678 whole entry): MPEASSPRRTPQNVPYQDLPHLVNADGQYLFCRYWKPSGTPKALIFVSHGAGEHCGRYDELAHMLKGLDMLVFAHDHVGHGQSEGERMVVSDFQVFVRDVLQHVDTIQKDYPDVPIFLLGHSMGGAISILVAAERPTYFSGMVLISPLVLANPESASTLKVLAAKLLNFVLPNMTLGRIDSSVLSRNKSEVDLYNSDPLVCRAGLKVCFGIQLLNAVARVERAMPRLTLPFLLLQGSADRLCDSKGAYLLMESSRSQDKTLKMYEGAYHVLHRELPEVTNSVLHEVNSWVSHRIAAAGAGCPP

Take `O=C(OC(C(F)(F)F)C(F)(F)F)N1CCC2(CCCN2C(=O)c2cn3c(n2)CN(C2CC2)CC3)CC1` [Example 2, 1,1,1,3,3,3-Hexafluoropropan-2-yl 1-(7-cyclopropyl-5,6,7,8-tetrahydroimidazo[1,2-a]pyrazine-2-carbonyl)-1,8-diazaspiro[4.5]decane-8-carboxylate]: the inhibition at 1 µM on MAGL [1] (setting [4]), at MAGL [1] (setting [5]) and on MAGL [3] was more than 75% each time. The IC50 at MAGL [1] (setting [6]), on MAGL [1] (setting [7]) and at MAGL [3] was less than 100 nM in each case. For the same molecule, the “MAGL % Inhibition at 5 mg/kg (Mouse)” value on MAGL [2] is on record as “### (% inhibition is greater than or equal to 75%)”.
Consider `O=C(OC(C(F)(F)F)C(F)(F)F)N1CCC2(CCCN2C(=O)c2cncnc2N2CCCC2)CC1` [Example 5, 1,1,1,3,3,3-Hexafluoropropan-2-yl 1-(4-(pyrrolidin-1-yl)pyrimidine-5-carbonyl)-1,8-diazaspiro[4.5]decane-8-carboxylate], for which the inhibition at 1 µM on MAGL [1] (setting [5]) and on MAGL [3] was more than 75% throughout. For the same molecule, the IC50 on MAGL [1] (setting [6]) and on MAGL [1] (setting [7]) was less than 100 nM each time. At MAGL [2], the “MAGL % Inhibition at 5 mg/kg (Mouse)” value is reported as “### (% inhibition is greater than or equal to 75%)”.
In the case of `CN(C(=O)c1cn2c(n1)CN(C1CC1)CC2)C1(C)CCN(C(=O)OC(C(F)(F)F)C(F)(F)F)CC1` [Example 18, 1,1,1,3,3,3-Hexafluoropropan-2-yl 4-(7-cyclopropyl-N-methyl-5,6,7,8-tetrahydroimidazo[1,2-a]pyrazine-2-carboxamido)-4-methylpiperidine-1-carboxylate], the inhibition at 1 µM at MAGL [1] (setting [4]), at MAGL [1] (setting [5]) and at MAGL [3] was more than 75% each time. The IC50 on MAGL [1] (setting [6]) and at MAGL [3] was less than 100 nM each time. On MAGL [2], the “MAGL % Inhibition at 5 mg/kg (Mouse)” value is on record as “### (% inhibition is greater than or equal to 75%)”.
With `CN(C(=O)c1nnc2n1CCN(C1CC1)C2)C1(C)CCN(C(=O)OC(C(F)(F)F)C(F)(F)F)CC1` [Example 20, 1,1,1,3,3,3-hexafluoropropan-2-yl 4-(7-cyclopropyl-N-methyl-5,6,7,8-tetrahydro-[1,2,4]triazolo[4,3-a]pyrazine-3-carboxamido)-4-methylpiperidine-1-carboxylate], the inhibition at 1 µM at MAGL [1] (setting [4]), at MAGL [1] (setting [5]) and at MAGL [3] was more than 75% each time. Further, the IC50 at MAGL [1] (setting [6]) was less than 100 nM. In addition, the “MAGL % Inhibition at 5 mg/kg (Mouse)” value at MAGL [2] is on record as “### (% inhibition is greater than or equal to 75%)”.
For `CC(C)(O)CN1CCn2cc(C(=O)N3CCCC34CCN(C(=O)OC(C(F)(F)F)C(F)(F)F)CC4)nc2C1` [Example 21, 1,1,1,3,3,3-Hexafluoropropan-2-yl 1-(7-(2-hydroxy-2-methylpropyl)-5,6,7,8-tetrahydroimidazo[1,2-a]pyrazine-2-carbonyl)-1,8-diazaspiro[4.5]decane-8-carboxylate], the inhibition at 1 µM at MAGL [1] (setting [4]), on MAGL [1] (setting [5]) and at MAGL [3] was more than 75% each time. Moreover, the IC50 on MAGL [1] (setting [6]) was less than 100 nM. Moreover, the “MAGL % Inhibition at 5 mg/kg (Mouse)” value at MAGL [2] was “# (% inhibition less or equal to 25%)”.
For `CC1(NC(=O)c2cn3c(n2)CN(S(C)(=O)=O)CC3)CCN(C(=O)OC(C(F)(F)F)C(F)(F)F)CC1` [Example 27, 1,1,1,3,3,3-hexafluoropropan-2-yl 4-methyl-4-(7-(methylsulfonyl)-5,6,7,8-tetrahydroimidazo[1,2-a]pyrazine-2-carboxamido)piperidine-1-carboxylate], the inhibition at 1 µM on MAGL [1] (setting [4]) was more than 75%. At MAGL [1] (setting [6]), the IC50 is less than 100 nM. Also, the “MAGL % Inhibition at 5 mg/kg (Mouse)” value on MAGL [2] is “# (% inhibition less or equal to 25%)”.
As for `Cc1c(C(=O)N2CCCC23CCN(C(=O)OC(C(F)(F)F)C(F)(F)F)CC3)[nH]c2ccc(Cl)cc12` [Example 109, 1,1,1,3,3,3-Hexafluoropropan-2-yl 1-(5-chloro-3-methyl-1H-indole-2-carbonyl)-1,8-diazaspiro[4.5] decane-8-carboxylate], at MAGL [2], the “MAGL % Inhibition at 5 mg/kg (Mouse)” value is recorded as “### (% inhibition is greater than or equal to 75%)”. On MAGL [3], this molecule came in with an inhibition at 1 µM of more than 75% and an IC50 of less than 100 nM.
For the molecule `CC(C)N1CCn2cc(C(=O)NC3(C)CCN(C(=O)OC(C(F)(F)F)C(F)(F)F)CC3)nc2C1` [Example 182, 1,1,1,3,3,3-Hexafluoropropan-2-yl 4-(7-isopropyl-5,6,7,8-tetrahydroimidazo[1,2-a]pyrazine-2-carboxamido)-4-methylpiperidine-1-carboxylate], the inhibition at 1 µM at MAGL [1] (setting [4]) and at MAGL [1] (setting [5]) was more than 75% throughout. On MAGL [1] (setting [6]), the IC50 was less than 100 nM. Further, the “MAGL % Inhibition at 5 mg/kg (Mouse)” value on MAGL [2] is “### (% inhibition is greater than or equal to 75%)”.
Consider `CC(C)(C)c1cc(CN2CCC3(CCN(C(=O)OC(C(F)(F)F)C(F)(F)F)CC3)C2)n(C2CCOCC2)n1` [Example 213, 1,1,1,3,3,3-Hexafluoropropan-2-yl 2-((3-(t-butyl)-1-(tetrahydro-2H-pyran-4-yl)-1H-pyrazol-5-yl)methyl)-2,8-diazaspiro[4.5]decane-8-carboxylate], for which, on MAGL [2], the “MAGL % Inhibition at 5 mg/kg (Mouse)” value was “### (% inhibition is greater than or equal to 75%)”. On MAGL [3], this molecule yielded an inhibition at 1 µM of more than 75% and an IC50 of less than 100 nM.
`CC(C)c1cc(CN2CCC3(CCN(C(=O)OC(C(F)(F)F)C(F)(F)F)CC3)C2)n(C2CCOCC2)n1` [Example 214, 1,1,1,3,3,3-Hexafluoropropan-2-yl 2-((3-isopropyl-1-(tetrahydro-2H-pyran-4-yl)-1H-pyrazol-5-yl)methyl)-2,8-diazaspiro[4.5]decane-8-carboxylate]: the “MAGL % Inhibition at 5 mg/kg (Mouse)” value on MAGL [2] is given as “### (% inhibition is greater than or equal to 75%)”. At MAGL [3], this molecule had an inhibition at 1 µM of more than 75% and an IC50 of less than 100 nM.
Turning to `CCc1cc(CN2CCC3(CCN(C(=O)OC(C(F)(F)F)C(F)(F)F)CC3)C2)n(-c2ccccc2Cl)n1` [Example 215, 1,1,1,3,3,3-Hexafluoropropan-2-yl 2-((1-(2-chlorophenyl)-3-ethyl-1H-pyrazol-5-yl)methyl)-2,8-diazaspiro[4.5]decane-8-carboxylate], on MAGL [2], the “MAGL % Inhibition at 5 mg/kg (Mouse)” value is reported as “### (% inhibition is greater than or equal to 75%)”. Also, on MAGL [3], the inhibition at 1 µM is more than 75% and the IC50 is less than 100 nM.
Take `CC(C)c1cc(CN2CCC3(CCN(C(=O)OC(C(F)(F)F)C(F)(F)F)CC3)C2)n(-c2ccccc2Cl)n1` [Example 216, 1,1,1,3,3,3-Hexafluoropropan-2-yl 2-((1-(2-chlorophenyl)-3-isopropyl-1H-pyrazol-5-yl)methyl)-2,8-diazaspiro[4.5]decane-8-carboxylate]: the “MAGL % Inhibition at 5 mg/kg (Mouse)” value on MAGL [2] was “### (% inhibition is greater than or equal to 75%)”. At MAGL [3], this molecule gave an inhibition at 1 µM of more than 75% and an IC50 of less than 100 nM.
The matching figures for `CC(C)n1cc(CN2CCC3(CCN(C(=O)OC(C(F)(F)F)C(F)(F)F)CC3)C2)c(-c2cccc(Cl)c2)n1` [Example 218, 1,1,1,3,3,3-Hexafluoropropan-2-yl 2-((3-(3-chlorophenyl)-1-isopropyl-1H-pyrazol-4-yl)methyl)-2,8-diazaspiro[4.5]decane-8-carboxylate]: “### (% inhibition is greater than or equal to 75%)”, more than 75% and less than 100 nM.
As for `CC(C)n1cc(CN2CCCC23CCN(C(=O)OC(C(F)(F)F)C(F)(F)F)CC3)c(-c2cccc(Cl)c2)n1` [Example 219, 1,1,1,3,3,3-Hexafluoropropan-2-yl 1-((3-(3-chlorophenyl)-1-isopropyl-1H-pyrazol-4-yl)methyl)-1,8-diazaspiro[4.5]decane-8-carboxylate], the “MAGL % Inhibition at 5 mg/kg (Mouse)” value at MAGL [2] is “### (% inhibition is greater than or equal to 75%)”. Also, at MAGL [3], the inhibition at 1 µM was more than 75% and the IC50 was less than 100 nM.
The matching figures for `CC(C)n1cc(CN2CCCC23CCN(C(=O)OC(C(F)(F)F)C(F)(F)F)CC3)c(-c2ccccc2Cl)n1` [Example 222, 1,1,1,3,3,3-Hexafluoropropan-2-yl 1-((3-(2-chlorophenyl)-1-isopropyl-1H-pyrazol-4-yl)methyl)-1,8-diazaspiro[4.5]decane-8-carboxylate]: “### (% inhibition is greater than or equal to 75%)”, more than 75% and less than 100 nM.
The corresponding values for `O=C(OC(C(F)(F)F)C(F)(F)F)N1CCC2(CCCN2Cc2cc3ccccc3s2)CC1` [Example 223, 1,1,1,3,3,3-Hexafluoropropan-2-yl 1-(benzo[b]thiophen-2-ylmethyl)-1,8-diazaspiro[4.5] decane-8-carboxylate] are “### (% inhibition is greater than or equal to 75%)”, more than 75% and less than 100 nM.
The corresponding values for `O=C(OC(C(F)(F)F)C(F)(F)F)N1CCC2(CCCN2Cc2csc(-c3ccccc3)n2)CC1` [Example 227, 1,1,1,3,3,3-Hexafluoropropan-2-yl 1-((2-phenylthiazol-4-yl)methyl)-1,8-diazaspiro[4.5]decane-8-carboxylate] are “### (% inhibition is greater than or equal to 75%)”, more than 75% and less than 100 nM.
